From US20110144125A1, “Anti-Arrhythmia Agents, Methods of Their Use, Methods of Their Identification and Kits Therefore” (THE UAB RESEARCH FOUNDATION, priority 2008, published 2011)

Legend:
rat right atria = experiment: Right atrial spontaneous (pacemaker-driven) contraction frequency; conditions: 30 nM isoproterenol
Procedure: Male Sprague-Dawley rats (325-400 g) were anesthetized with intra-peritoneal pentobarbital (0.1 g/kg). Their right and left atria were isolated, superfused at 30° C. in Krebs-Henseleit buffer, and nearly isometric forces of contraction were measured from these muscles (Wolkowicz et al., 2002). 2-APB was prepared as a 150 mM dimethyl sulfoxide stock.
Left atria (n=9) were paced at 0.1 Hz, treated with 300 nM BayK 8644 for 5 min, then with 20 μM 2-APB for 10 min, and the pacing stimulus was stopped. These preparations then were incubated with six increasing concentrations of zatebradine (10-100 μM) for 3-5 min at each concentration, and rates of SMA were recorded. Untreated right atria (n=9) also were titrated with zatebradine and its effect on contraction frequency was recorded.
To test whether zatebradine affects the SMA occurring in the presence of 2-APB and isoproterenol, left atria (n=7) were paced at 0.1 Hz, treated with 30 nM isoproterenol for 5 min, then with 20 μM 2-APB for 10 min, and the pacing stimulus was stopped. Rates of SMA were recorded, these left atria were exposed to 70 μM zatebradine for 10 min, and rates of SMA were recorded again. A group of right atria (n=7) also were exposed to 30 nM isoproterenol for 5 min and then to 70 μM zatebradine for 10 min. Right atrial contraction frequency was recorded at these two times.
To test whether ZD-7288 (4-Ethylphenyl amino-1,2-dimethyl-6-methylaminopyridinium chloride), an If inhibitor structurally unrelated to zatebradine (Baruscotti et al., 2005; Sanders et al., 2006) affects the SMA occurring in the presence of 2-APB and BayK 8644, rat left atria (n=7) were treated with 300 nM BayK 8644 for 5 min, then with 20 μM 2-APB for 10 min, and the rates of SMA were recorded. These atria then were incubated with six increasing concentrations of ZD-7288 (10-100 μM) for 3-5 min at each concentration, and the rates of SMA were recorded. Right atria (n=7) were titrated similarly with ZD-7288 (0-100 μM) and the change in their contraction frequency was recorded.

[1] = tested on: isolated atrial and ventricular muscle; conditions: >20 μM 2-APB with an agent that increases myocyte calcium load
Procedure: Specifically, isolated, superfused heart muscle, atrial or ventricular, treated with an appropriate concentration of 2-APB (>20 μM) and with an agent that increases myocyte calcium load was exposed to external pacing that stimulates the muscle at a physiological rate and with strength just sufficient to capture it.

[2] = tested on: right ventricular muscle strips and right or left ventricular papillary muscles; experiment: Ventricular muscle model of SMA and STA; design: species or system rat; conditions: paced at 0.5 Hz, added to the superfusate in appropriate amounts
Source text: To further establish this model as a general test for arrhythmic and anti-arrhythmic agents, right ventricular muscle strips and right or left ventricular papillary muscles were isolated from anesthetized rats as cardiac muscle exemplars using methods known to persons skilled in the art. Additional exemplars could include ventricular or atrial conduction system cells and the SAN itself. These muscles were then superfused as described above and paced at 0.5 Hz.

Compound	right atrial contraction frequency (rat right atria) [contractions/min]	mechanical activity under physiological-rate pacing [1]	ventricular SMA [2]
CC(C)NCC(O)c1ccc(O)c(O)c1 (stereo not drawn) [isoproterenol]	276±11.4		
NCCOB(c1ccccc1)c1ccccc1 [2-APB, 2-aminoethoxydiphenyl borate]		disorganized, fibrillation-like mechanical activity	ventricular SMA was observed
